{"source": "paper PMC6220303", "about": "(EMBO Molecular Medicine, 2018)", "key": {"[1]": {"tested_on": "healthy participants ≥ 60 years", "test": "Adverse events after once-daily dosing over two weeks (Appendix Table S7)", "type": "in vivo, human"}, "[2]": {"tested_on": "healthy participants ≥ 60 years", "test": "Adverse events after 3 months daily dosing (Appendix Table S8)", "type": "in vivo, human", "conditions": "N = 25", "protocol": "For further details, see the Appendix Table S10 in Appendix and the accompanying clinical protocols synopsis (Appendix Table S11).\nRandomized, double-blind, placebo-controlled, parallel-group study to assess the safety, Multiple-dose over 13-tolerability, pharmacokinetics ≥ 60 yrs 100 / 24 weeks (2, 10, 35 or 85 mg and pharmacodynamics of q.d. CNP520 vs. placebo) multiple oral doses of CNP520 in healthy elderly participants\nTitle A randomized, double-blind, placebo-controlled, parallel-group study to assess the safety, tolerability, pharmacokinetics and pharmacodynamics of multiple oral doses of CNP520 in healthy elderly subjects\nBrief title Dose-ranging safety and tolerability study in subjects ≥60 years of age Sponsor and Clinical Novartis\nStudy type Interventional […]\nrationale months to allow initiation future long-term efficacy trials in patients with Alzheimer’s disease (AD) or in subjects at risk of AD. In addition, data relevant for Pharmacokinetic/Pharmacodynamic modeling will be obtained in order to define the target dose in subsequent efficacy studies.\nPrimary Objective(s) To determine the safety and tolerability of multiple, once-daily oral doses of […]\nSecondary • To assess the change from baseline of CSF Aβ concentrations (Aβ1-Objectives 38; Aβ1-40; Aβ1-42) in healthy elderly subjects over 13 weeks treatment with CNP520 as compared to placebo"}}, "data": [{"smiles": "C[C@@]1(c2nc(NC(=O)c3ncc(C(F)(F)F)cc3Cl)ccc2F)CO[C@@](C)(C(F)(F)F)C(N)=N1", "note": "[CNP520]", "values": [{"measurement": "AE incidence: Ear and labyrinth disorders", "setting": "[1]; 10 mg once daily, N = 9", "value": "0 (0.0) n (%)"}, {"measurement": "AE incidence: Eye disorders", "setting": "[1]; 10 mg once daily, N = 9", "value": "1 (11.1) n (%)"}, {"measurement": "AE incidence: Gastrointestinal disorders", "setting": "[1]; 10 mg once daily, N = 9", "value": "3 (33.3) n (%)"}, {"measurement": "AE incidence: General disorders and administration site conditions", "setting": "[1]; 10 mg once daily, N = 9", "value": "0 (0.0) n (%)"}, {"measurement": "AE incidence: Infections and infestations", "setting": "[1]; 10 mg once daily, N = 9", "value": "2 (22.2) n (%)"}, {"measurement": "AE incidence: Metabolism and nutrition disorders", "setting": "[1]; 10 mg once daily, N = 9", "value": "0 (0.0) n (%)"}, {"measurement": "AE incidence: Nervous system disorders", "setting": "[1]; 10 mg once daily, N = 9", "value": "4 (44.4) n (%)"}, {"measurement": "AE incidence: Psychiatric disorders", "setting": "[1]; 10 mg once daily, N = 9", "value": "1 (11.1) n (%)"}, {"measurement": "AE incidence: Renal and urinary disorders", "setting": "[1]; 10 mg once daily, N = 9", "value": "0 (0.0) n (%)"}, {"measurement": "AE incidence: Skin and subcutaneous tissue disorders", "setting": "[1]; 10 mg once daily, N = 9", "value": "0 (0.0) n (%)"}, {"measurement": "AE incidence: Ear and labyrinth disorders", "setting": "[1]; 30 mg once daily, N = 9", "value": "1 (11.1) n (%)"}, {"measurement": "AE incidence: Eye disorders", "setting": "[1]; 30 mg once daily, N = 9", "value": "0 (0.0) n (%)"}, {"measurement": "AE incidence: Gastrointestinal disorders", "setting": "[1]; 30 mg once daily, N = 9", "value": "2 (22.2) n (%)"}, {"measurement": "AE incidence: General disorders and administration site conditions", "setting": "[1]; 30 mg once daily, N = 9", "value": "1 (11.1) n (%)"}, {"measurement": "AE incidence: Infections and infestations", "setting": "[1]; 30 mg once daily, N = 9", "value": "2 (22.2) n (%)"}, {"measurement": "AE incidence: Metabolism and nutrition disorders", "setting": "[1]; 30 mg once daily, N = 9", "value": "0 (0.0) n (%)"}, {"measurement": "AE incidence: Nervous system disorders", "setting": "[1]; 30 mg once daily, N = 9", "value": "0 (0.0) n (%)"}, {"measurement": "AE incidence: Psychiatric disorders", "setting": "[1]; 30 mg once daily, N = 9", "value": "0 (0.0) n (%)"}, {"measurement": "AE incidence: Respiratory, thoracic and mediastinal disorders", "setting": "[1]; 30 mg once daily, N = 9", "value": "0 (0.0) n (%)"}, {"measurement": "AE incidence: Skin and subcutaneous tissue disorders", "setting": "[1]; 30 mg once daily, N = 9", "value": "0 (0.0) n (%)"}, {"measurement": "Participants with any AE(s)", "setting": "[1]; 30 mg once daily, N = 9", "value": "5 (55.6) n (%)"}, {"measurement": "AE incidence: Ear and labyrinth disorders", "setting": "[1]; 90 mg once daily, N = 9", "value": "0 (0.0) n (%)"}, {"measurement": "AE incidence: Eye disorders", "setting": "[1]; 90 mg once daily, N = 9", "value": "1 (11.1) n (%)"}, {"measurement": "AE incidence: Gastrointestinal disorders", "setting": "[1]; 90 mg once daily, N = 9", "value": "3 (33.3) n (%)"}, {"measurement": "AE incidence: General disorders and administration site conditions", "setting": "[1]; 90 mg once daily, N = 9", "value": "0 (0.0) n (%)"}, {"measurement": "AE incidence: Infections and infestations", "setting": "[1]; 90 mg once daily, N = 9", "value": "2 (22.2) n (%)"}, {"measurement": "AE incidence: Metabolism and nutrition disorders", "setting": "[1]; 90 mg once daily, N = 9", "value": "0 (0.0) n (%)"}, {"measurement": "AE incidence: Nervous system disorders", "setting": "[1]; 90 mg once daily, N = 9", "value": "1 (11.1) n (%)"}, {"measurement": "AE incidence: Psychiatric disorders", "setting": "[1]; 90 mg once daily, N = 9", "value": "0 (0.0) n (%)"}, {"measurement": "AE incidence: Renal and urinary disorders", "setting": "[1]; 90 mg once daily, N = 9", "value": "1 (11.1) n (%)"}, {"measurement": "AE incidence: Respiratory, thoracic and mediastinal disorders", "setting": "[1]; 90 mg once daily, N = 9", "value": "1 (11.1) n (%)"}, {"measurement": "AE incidence: Skin and subcutaneous tissue disorders", "setting": "[1]; 90 mg once daily, N = 9", "value": "0 (0.0) n (%)"}, {"measurement": "Participants with any AE(s)", "setting": "[1]; 90 mg once daily, N = 9", "value": "6 (66.7) n (%)"}, {"measurement": "AE incidence: Eye disorders", "setting": "[1]; 300 mg once daily, N = 8", "value": "0 (0.0) n (%)"}, {"measurement": "AE incidence: Gastrointestinal disorders", "setting": "[1]; 300 mg once daily, N = 8", "value": "2 (25.0) n (%)"}, {"measurement": "AE incidence: General disorders and administration site conditions", "setting": "[1]; 300 mg once daily, N = 8", "value": "1 (12.5) n (%)"}, {"measurement": "AE incidence: Infections and infestations", "setting": "[1]; 300 mg once daily, N = 8", "value": "0 (0.0) n (%)"}, {"measurement": "AE incidence: Metabolism and nutrition disorders", "setting": "[1]; 300 mg once daily, N = 8", "value": "2 (25.0) n (%)"}, {"measurement": "AE incidence: Nervous system disorders", "setting": "[1]; 300 mg once daily, N = 8", "value": "3 (37.5) n (%)"}, {"measurement": "AE incidence: Psychiatric disorders", "setting": "[1]; 300 mg once daily, N = 8", "value": "0 (0.0) n (%)"}, {"measurement": "AE incidence: Renal and urinary disorders", "setting": "[1]; 300 mg once daily, N = 8", "value": "1 (12.5) n (%)"}, {"measurement": "AE incidence: Respiratory, thoracic and mediastinal disorders", "setting": "[1]; 300 mg once daily, N = 8", "value": "0 (0.0) n (%)"}, {"measurement": "AE incidence: Skin and subcutaneous tissue disorders", "setting": "[1]; 300 mg once daily, N = 8", "value": "2 (25.0) n (%)"}, {"measurement": "Participants with any AE(s)", "setting": "[1]; 300 mg once daily, N = 8", "value": "6 (75.0) n (%)"}, {"measurement": "AE incidence: Blood and lymphatic system disorders", "setting": "[2]; 2 mg daily", "value": "0 (0.0) n (%)"}, {"measurement": "AE incidence: Ear and labyrinth disorders", "setting": "[2]; 2 mg daily", "value": "0 (0.0) n (%)"}, {"measurement": "AE incidence: Eye disorders", "setting": "[2]; 2 mg daily", "value": "2 (8.0) n (%)"}, {"measurement": "AE incidence: Gastrointestinal disorders", "setting": "[2]; 2 mg daily", "value": "7 (28.0) n (%)"}, {"measurement": "AE incidence: General disorders and administration site conditions", "setting": "[2]; 2 mg daily", "value": "1 (4.0) n (%)"}, {"measurement": "AE incidence: Immune system disorders", "setting": "[2]; 2 mg daily", "value": "0 (0.0) n (%)"}, {"measurement": "AE incidence: Infections and infestations", "setting": "[2]; 2 mg daily", "value": "3 (12.0) n (%)"}, {"measurement": "AE incidence: Injury, poisoning and procedural complications", "setting": "[2]; 2 mg daily", "value": "7 (28.0) n (%)"}, {"measurement": "AE incidence: Investigations", "setting": "[2]; 2 mg daily", "value": "2 (8.0) n (%)"}, {"measurement": "AE incidence: Metabolism and nutrition disorders", "setting": "[2]; 2 mg daily", "value": "1 (4.0) n (%)"}, {"measurement": "AE incidence: Neoplasms benign, malignant & unspecified (incl. cysts and polyps)", "setting": "[2]; 2 mg daily", "value": "1 (4.0) n (%)"}, {"measurement": "AE incidence: Nervous system disorders", "setting": "[2]; 2 mg daily", "value": "13 (52.0) n (%)"}, {"measurement": "AE incidence: Psychiatric disorders", "setting": "[2]; 2 mg daily", "value": "1 (4.0) n (%)"}, {"measurement": "AE incidence: Renal and urinary disorders", "setting": "[2]; 2 mg daily", "value": "0 (0.0) n (%)"}, {"measurement": "AE incidence: Reproductive system and breast disorders", "setting": "[2]; 2 mg daily", "value": "0 (0.0) n (%)"}, {"measurement": "AE incidence: Respiratory, thoracic and mediastinal disorders", "setting": "[2]; 2 mg daily", "value": "6 (24.0) n (%)"}, {"measurement": "AE incidence: Skin and subcutaneous tissue disorders", "setting": "[2]; 2 mg daily", "value": "3 (12.0) n (%)"}, {"measurement": "AE incidence: Vascular disorders", "setting": "[2]; 2 mg daily", "value": "0 (0.0) n (%)"}, {"measurement": "Participants with at least one AE", "setting": "[2]; 2 mg daily", "value": "19 (76.0) n (%)"}, {"measurement": "AE incidence: Blood and lymphatic system disorders", "setting": "[2]; 10 mg daily", "value": "0 (0.0) n (%)"}, {"measurement": "AE incidence: Ear and labyrinth disorders", "setting": "[2]; 10 mg daily", "value": "1 (4.0) n (%)"}, {"measurement": "AE incidence: Eye disorders", "setting": "[2]; 10 mg daily", "value": "5 (20.0) n (%)"}, {"measurement": "AE incidence: Gastrointestinal disorders", "setting": "[2]; 10 mg daily", "value": "9 (36.0) n (%)"}, {"measurement": "AE incidence: General disorders and administration site conditions", "setting": "[2]; 10 mg daily", "value": "2 (8.0) n (%)"}, {"measurement": "AE incidence: Immune system disorders", "setting": "[2]; 10 mg daily", "value": "0 (0.0) n (%)"}, {"measurement": "AE incidence: Infections and infestations", "setting": "[2]; 10 mg daily", "value": "10 (40.0) n (%)"}]}]}
